# Values of other authors in US9604971B2, “Co-crystal of the PAR-1 receptor antagonists vorapaxar and aspirin” (ARALEZ PHARMACEUTICALS TRADING DAC, priority 2013, dated 2017).
# Details: over time; reverted to the crystalline structure of Form 1
structure (smiles),measurement,value
CCOC(=O)N[C@@H]1CC[C@@H]2[C@@H](C1)C[C@H]1C(=O)O[C@H](C)[C@H]1[C@H]2/C=C/c1ccc(-c2cccc(F)c2)cn1 [Form 2],stability of crystalline polymorphic form,unstable
